Results taken from patent publication US12103945B2, “Crystalline form of vascular leakage blocker compound” (Curacle Co., Ltd., priority 2020, dated 2024).
Converted amounts (≈) assume the structure as drawn.

Legend:
Type in all cases: physicochemical
[1] = Crystalline form change on storage at room temperature (XRPD)
Description: The X-ray powder diffraction (XRPD) pattern was obtaine d on a Shimadzu XRD-6000 instrument.
• Tube: Cu: K-α (λ=1.54056 Å) • Generator: Voltage: 40 kV; Current: 30 mA • Scan Scope: 3˜50 deg. Scanning rate: 5 deg./min
[…] Particularly, XRPD was performed according to the method described in <Experimental Methods> 1. X-ray Powder Diffractometer (XRPD).

[2] = Solubility assay by visual observation and manual dilution; settings: thermodynamic from solid, room temperature
Description: Solubility assay was performed by visual observation and manual dilution at room temperature. […] The total amount of the solvent was recorded to calculate the solubility for each solvent.

[3] = Dynamic vapor sorption (DVS); settings: for Mass change (%) Desorption / Mass change (%) Sorption / Mass change (%) Hysteresis: 25° C.
Description: Around 10 mg of samples were used to test its moisture sorption/desorption profiles.
• Temperature: 25° C. • Equilibrium: dm/dt: 0.01%/min • Relative Humidity (RH) measurement stepscope: 0%˜95%˜0% RH • Relative Humidity (RH) measurement step: 5% RH • Samples: 10-20 mg • Hygroscopicity Classification • Hygroscopicity: Water Sorption Criterion • Deliquescent: Sufficient water is absorbed to form a liquid. • Very hygroscopic: W %≥15% • Hygroscopic: W %≥2% • Slightly hygroscopic: W %≥0.2% • Non-hygroscopic: W %<0.2% • 25±1° C., 80±2% RH

[4] = Thermal gravimetric analysis (TGA); settings: heating from room temperature to 120° C.
Description: Samples of compounds (4˜6 mg) were weighed into the pan, and heated under nitrogen purge.
• Ramp rate: 20° C./min over the range 30° C.˜300° C. • Nitrogen purge: 50 mL/min • Samples: About 5 mg

[5] = Accelerated stability test (HPLC purity); settings: for Purity (%): 40 ± 2° C. & 75 ± 5% RH
Description: • Column: Agilent Zorbax Rx C8, 4.6 mm×250 mm, 5.0 μm • Moving phase: 85% acetonitrile • Flow rate: 1.0 mL/rain • Wavelength: 205 nm • Injection volume: 10 λL • Column temperature: 30° C. • Diluent: 100% acetonitrile
In order to confirm the stability of the novel crystalline form according to the present invention, the stability of the crystalline form I prepared in Example 1 was evaluated using a liquid chromatography method under the analysis conditions of <Experimental Methods>6. High performance liquid chromatography (HFLC). The results of the accelerated stability test from 1 month to 6 months in the conditions of 40±2° C. & 75±5 RH are shown in Table 15 below.

[6] = stored at room temperature for 2 months
[7] = stored at room temperature for 3 months

COC(=O)CCC/C=C(\C)[C@H]1CC[C@H]2[C@@H]3CC=C4C[C@@H](O[C@@H]5C=C[C@H](OC(C)=O)[C@@H](COC(C)=O)O5)CC[C@]4(C)[C@H]3CC[C@]12C [crystalline form IV, (E)-methyl 6-((3S,8S,9S,10R,13S,14S,17R)-3-(((2S,5S,6R)-5-acetoxy-6-(acetoxymethyl)-5,6-dihydro-2H-pyran-2-yl)oxy)-10,13-dimethyl-2,3,4,7,8,9,10,11,12,13,14,15,16,17-tetradecahydro-1H-cyclopenta[a]phenanthrene-17-yl)hept-5-enoate]
Change of crystalline form (XRPD pattern) [1, 6]: a novel crystalline form having the XRPD pattern different from that of the crystalline form IV was confirmed
Change of crystalline form (XRPD pattern) [1, 7]: a novel crystalline form having the XRPD pattern different from that of the crystalline form IV was confirmed

COC(=O)CCC/C=C(\C)[C@H]1CC[C@H]2[C@@H]3CC=C4C[C@@H](OC5C=C[C@H](OC(C)=O)[C@@H](COC(C)=O)O5)CC[C@]4(C)[C@H]3CC[C@]12C (stereo partly drawn) [compound 1, (E)-methyl 6-((3S,8S,9S,10R,13S,14S,17R)-3-(((5S,6R)-5-acetoxy-6-(acetoxymethyl)-5,6-dihydro-2H-pyran-2-yl)oxy)-10,13-dimethyl-2,3,4,7,8,9,10,11,12,13,14,15,16,17-tetradecahydro-1H-cyclopenta[a]phenanthrene-17-yl)hept-5-enoate]
solubility ([2]; organic solvent or mixture, solvent 1,4-dioxane): > 100 mg/mL
solubility ([2]; organic solvent or mixture, solvent 1-butanol): 26 to 52 mg/mL (≈ 41.5 to 83 mM)
solubility ([2]; organic solvent or mixture, solvent 2-methyl-tetrahydrofuran): > 93.2 mg/mL
solubility ([2]; organic solvent or mixture, solvent Acetone): > 100 mg/mL
solubility ([2]; organic solvent or mixture, solvent Acetonitrile (ACN)): > 82.6 mg/mL
solubility ([2]; organic solvent or mixture, solvent Anisole): > 100 mg/mL
solubility ([2]; organic solvent or mixture, solvent Butyl acetate): > 88.6 mg/mL
solubility ([2]; organic solvent or mixture, solvent Chloroform): > 100 mg/mL
solubility ([2]; organic solvent or mixture, solvent Cyclohexane): 26 to 40 mg/mL (≈ 41.5 to 63.8 mM)
solubility ([2]; organic solvent or mixture, solvent Dichloromethane (DCM)): > 100 mg/mL
solubility ([2]; organic solvent or mixture, solvent Dimethyl sulfoxide (DMSO)): 30 to 45 mg/mL (≈ 47.9 to 71.8 mM)
solubility ([2]; organic solvent or mixture, solvent Ethanol (EtOH)): 5.1 to 6.4 mg/mL (≈ 8.14 to 10.2 mM)
solubility ([2]; organic solvent or mixture, solvent Ethyl acetate (EtOAc)): > 100 mg/mL
solubility ([2]; organic solvent or mixture, solvent Isopropanol (IPA)): 5.1 to 6.8 mg/mL (≈ 8.14 to 10.8 mM)
solubility ([2]; organic solvent or mixture, solvent Isopropyl acetate (iPrOAc)): > 100 mg/mL
solubility ([2]; organic solvent or mixture, solvent Isopropyl ether): 65.2 to 130 mg/mL (≈ 104 to 208 mM)
solubility ([2]; organic solvent or mixture, solvent Methanol (MeOH)): 6.9 to 8.2 mg/mL (≈ 11 to 13.1 mM)
solubility ([2]; organic solvent or mixture, solvent Methyl ethyl ketone (MEK)): > 100 mg/mL
solubility ([2]; organic solvent or mixture, solvent Methyl tert-butyl ether (MTBE)): > 85.4 mg/mL
solubility ([2]; organic solvent or mixture, solvent N,N-dimethylformamide (DMF)): > 100 mg/mL
solubility ([2]; organic solvent or mixture, solvent Petroleum ether): 11.5 to 15.3 mg/mL (≈ 18.3 to 24.4 mM)
solubility ([2]; organic solvent or mixture, solvent Tetrahydrofuran (THF)): > 76 mg/mL
solubility ([2]; organic solvent or mixture, solvent Toluene): > 83 mg/mL
solubility ([2]; organic solvent or mixture, solvent n-heptane): 6.3 to 8.8 mg/mL (≈ 10.1 to 14 mM)
solubility ([2]; organic solvent or mixture, solvent n-propanol): 26.1 to 52.1 mg/mL (≈ 41.6 to 83.1 mM)
solubility ([2]; solvent Water (H2O)): < 1 mg/mL

COC(=O)CCC/C=C(\C)[C@H]1CC[C@H]2[C@@H]3CC=C4C[C@@H](O[C@@H]5C=C[C@H](OC(C)=O)[C@@H](COC(C)=O)O5)CC[C@]4(C)[C@H]3CC[C@]12C [crystalline form I, (E)-methyl 6-((3S,8S,9S,10R,13S,14S,17R)-3-(((2S,5S,6R)-5-acetoxy-6-(acetoxymethyl)-5,6-dihydro-2H-pyran-2-yl)oxy)-10,13-dimethyl-2,3,4,7,8,9,10,11,12,13,14,15,16,17-tetradecahydro-1H-cyclopenta[a]phenanthrene-17-yl)hept-5-enoate]
Mass change (%) Desorption ([3]; Target RH 0.0%): −0.1124%
Mass change (%) Sorption ([3]; Target RH 0.0%): 0.0000%
Mass change (%) Desorption ([3]; Target RH 5.0%): −0.1004%
Mass change (%) Hysteresis ([3]; Target RH 5.0%): −0.1074%
Mass change (%) Sorption ([3]; Target RH 5.0%): 0.0070%
Mass change (%) Desorption ([3]; Target RH 10.0%): −0.0904%
Mass change (%) Hysteresis ([3]; Target RH 10.0%): −0.1034%
Mass change (%) Sorption ([3]; Target RH 10.0%): 0.0131%
Mass change (%) Desorption ([3]; Target RH 15.0%): −0.0773%
Mass change (%) Hysteresis ([3]; Target RH 15.0%): −0.0964%
Mass change (%) Sorption ([3]; Target RH 15.0%): 0.0191%
Mass change (%) Desorption ([3]; Target RH 20.0%): −0.0673%
Mass change (%) Hysteresis ([3]; Target RH 20.0%): −0.0906%
Mass change (%) Sorption ([3]; Target RH 20.0%): 0.0231%
Mass change (%) Desorption ([3]; Target RH 25.0%): −0.0492%
Mass change (%) Hysteresis ([3]; Target RH 25.0%): −0.0803%
Mass change (%) Sorption ([3]; Target RH 25.0%): 0.0311%
Mass change (%) Desorption ([3]; Target RH 30.0%): −0.0402%
Mass change (%) Hysteresis ([3]; Target RH 30.0%): −0.0723%
Mass change (%) Sorption ([3]; Target RH 30.0%): 0.0321%
Mass change (%) Desorption ([3]; Target RH 35.0%): −0.0261%
Mass change (%) Hysteresis ([3]; Target RH 35.0%): −0.0592%
Mass change (%) Sorption ([3]; Target RH 35.0%): 0.0331%
Mass change (%) Desorption ([3]; Target RH 40.0%): −0.0131%
Mass change (%) Hysteresis ([3]; Target RH 40.0%): −0.0582%
Mass change (%) Sorption ([3]; Target RH 40.0%): 0.0452%
Mass change (%) Desorption ([3]; Target RH 45.0%): 0.0000%
Mass change (%) Hysteresis ([3]; Target RH 45.0%): −0.0512%
Mass change (%) Sorption ([3]; Target RH 45.0%): 0.0512%
Mass change (%) Desorption ([3]; Target RH 50.0%): 0.0141%
Mass change (%) Hysteresis ([3]; Target RH 50.0%): −0.0462%
Mass change (%) Sorption ([3]; Target RH 50.0%): 0.0602%
Mass change (%) Desorption ([3]; Target RH 55.0%): 0.0261%
Mass change (%) Hysteresis ([3]; Target RH 55.0%): −0.0381%
Mass change (%) Sorption ([3]; Target RH 55.0%): 0.0642%
Mass change (%) Desorption ([3]; Target RH 60.0%): 0.0392%
Mass change (%) Hysteresis ([3]; Target RH 60.0%): −0.0351%
Mass change (%) Sorption ([3]; Target RH 60.0%): 0.0743%
Mass change (%) Desorption ([3]; Target RH 65.0%): 0.0522%
Mass change (%) Hysteresis ([3]; Target RH 65.0%): −0.0291%
Mass change (%) Sorption ([3]; Target RH 65.0%): 0.0813%
Mass change (%) Desorption ([3]; Target RH 70.0%): 0.0663%
Mass change (%) Hysteresis ([3]; Target RH 70.0%): −0.0231%
Mass change (%) Sorption ([3]; Target RH 70.0%): 0.0893%
Mass change (%) Desorption ([3]; Target RH 75.0%): 0.0823%
Mass change (%) Hysteresis ([3]; Target RH 75.0%): −0.0191%
Mass change (%) Sorption ([3]; Target RH 75.0%): 0.1014%
Mass change (%) Desorption ([3]; Target RH 80.0%): 0.0964%
Mass change (%) Hysteresis ([3]; Target RH 80.0%): −0.0131%
Mass change (%) Sorption ([3]; Target RH 80.0%): 0.1094%
Mass change (%) Desorption ([3]; Target RH 85.0%): 0.1114%
Mass change (%) Hysteresis ([3]; Target RH 85.0%): −0.0080%
Mass change (%) Sorption ([3]; Target RH 85.0%): 0.1195%
Mass change (%) Desorption ([3]; Target RH 90.0%): 0.1325%
Mass change (%) Hysteresis ([3]; Target RH 90.0%): −0.0010%
Mass change (%) Sorption ([3]; Target RH 90.0%): 0.1335%
Mass change (%) Desorption ([3]; Target RH 95.0%): 0.1436%
Mass change (%) Sorption ([3]; Target RH 95.0%): 0.1436%
Hygroscopicity classification ([3]; 25±1° C., 80±2% RH): non-hygroscopic
water sorption ([3]; at 80% RH): 0.11%
mass loss (TGA) [4]: 0.078%
Purity (%) ([5]; storage time 1 month): 99.8%
Purity (%) ([5]; storage time 3 months): 99.8%
Purity (%) ([5]; storage time 6 months): 99.8%
Purity (%) ([5]; storage time Initial): 99.8%
Accelerated stability (result in words) ([5]; 40±2° C. & 75±5 RH, 1 month to 6 months): stably maintained for up to 6 months without affecting the purity

COC(=O)CCC/C=C(\C)[C@H]1CC[C@H]2[C@@H]3CC=C4C[C@@H](O[C@@H]5C=C[C@H](OC(C)=O)[C@@H](COC(C)=O)O5)CC[C@]4(C)[C@H]3CC[C@]12C [crystalline form V, (E)-methyl 6-((3S,8S,9S,10R,13S,14S,17R)-3-(((2S,5S,6R)-5-acetoxy-6-(acetoxymethyl)-5,6-dihydro-2H-pyran-2-yl)oxy)-10,13-dimethyl-2,3,4,7,8,9,10,11,12,13,14,15,16,17-tetradecahydro-1H-cyclopenta[a]phenanthrene-17-yl)hept-5-enoate]
Change of crystalline form (XRPD pattern) [1, 6]: a novel crystalline form having the XRPD pattern different from that of the crystalline form V was confirmed
Change of crystalline form (XRPD pattern) [1, 7]: a novel crystalline form having the XRPD pattern different from that of the crystalline form V was confirmed
